Like-named read-outs stand apart in the source and are kept apart here.
What was measured:
[1] = UV-vis 263 nm, saturated solution
Source text: According to the Lambert-Beer Law, the concentration of sorbic acid is proportional to absorption intensity (Abs(Intesity)=K [Sorbic Acid]).

[2] = cited from earlier work
[3] = aqueous solution, pH between 2.5 and 4, about 20 C

Row | Structure (SMILES) | Abs (pH 2.5) ([1]; aged at 40 F. 0 day) | Abs (pH 2.5) ([1]; aged at 40 F. 7 days) | Abs (pH 3.0) ([1]; aged at 40 F. 7 days) | Stability (crystals) (aged at 40 F. 0 day) | Stability (crystals) (aged at 40 F. 7 days) | solubility of sorbic acid in high acid syrup ([2]; 60% brix syrup) | sorbate concentration at which sorbic acid precipitation begins [2, 3] | sorbate concentration at which the tendency to precipitate is clear [2, 3]
1 | C/C=C/C=C/C(=O)[O-].[K+] [Potassium Sorbate] | 1.644 | 1.357 | 1.24 | no crystals | lot of crystals | – | – | –
2 | C/C=C/C=C/C(=O)O [sorbic acid] | – | – | – | – | – | 0.08% | about 500 ppm | 1300 ppm

— patent publication US11944111B2, “Stabilizing sorbic acid in beverage syrup” (PepsiCo, Inc., priority 2015, dated 2024)
